Test results reported in PubChem BioAssay AID743420 (The Scripps Research Institute Molecular Screening Center, 2014).
Calls of active or inactive are those of the source. How the calls were made is not given here.

Target: Sphingosine 1-phosphate receptor 5 (Homo sapiens) (UniProt Q9H228)
Test: agonism at human S1PR5 – cell-based, FRET, dose response, counter-screen for S1PR3 antagonist project, late-stage follow-up (AID 743420)
Details: S1P5 cell-based FRET assay, agonist mode

Sequence of Sphingosine 1-phosphate receptor 5 (Homo sapiens) (Q9H228 whole entry, looked up): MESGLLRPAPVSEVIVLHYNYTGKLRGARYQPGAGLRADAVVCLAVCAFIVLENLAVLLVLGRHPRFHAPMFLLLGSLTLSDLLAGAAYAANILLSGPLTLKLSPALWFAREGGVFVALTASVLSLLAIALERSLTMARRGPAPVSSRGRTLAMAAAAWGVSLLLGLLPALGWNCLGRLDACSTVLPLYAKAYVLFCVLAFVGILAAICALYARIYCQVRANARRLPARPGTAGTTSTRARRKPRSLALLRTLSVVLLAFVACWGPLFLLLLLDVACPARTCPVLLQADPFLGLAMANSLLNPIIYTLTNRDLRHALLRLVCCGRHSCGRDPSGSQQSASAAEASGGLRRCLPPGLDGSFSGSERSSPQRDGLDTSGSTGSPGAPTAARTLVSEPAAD

SMILES | EC50
O=C(NC(c1cccc(Cl)c1)c1nc(-c2ccccc2)no1)c1cccc(Cl)c1 (configuration not stated) | > 28.2 µM (inactive)
O=C(NC(c1ccc(Cl)cc1)c1nc(-c2ccccn2)no1)c1cccc(Cl)c1 (configuration not stated) | > 28.2 µM (inactive)
O=C(NC(c1cccc(Cl)c1)c1nc(-c2ccccc2)no1)c1ccc(Cl)c(Cl)c1 (configuration not stated) | > 28.2 µM (inactive)
CCc1ccc(C(NC(=O)c2cccc(Cl)c2)c2nc(-c3ccccc3)no2)cc1 (configuration not stated) | > 28.2 µM (inactive)
Cc1ccc(C(=O)NC(c2ccccc2)c2nc(-c3ccccc3)no2)cc1 (configuration not stated) | > 28.2 µM (inactive)
O=C(NC(c1cccc(Cl)c1)c1nc(-c2ccccc2)no1)c1cc(Cl)cc(Cl)c1 (configuration not stated) | > 28.2 µM (inactive)
O=C(NC(c1ccc(Cl)cc1)c1nc(-c2cccc(Cl)c2)no1)c1cccc(Cl)c1 (configuration not stated) | > 28.2 µM (inactive)
O=C(NC(c1ccc(Cl)cc1)c1nc(-c2ccccc2)no1)c1ccc(Cl)c(Br)c1 (configuration not stated) | > 28.2 µM (inactive)
O=C(NC(c1nc(-c2ccccc2)no1)C1CCOCC1)c1ccc(Cl)c(Cl)c1 (configuration not stated) | > 28.2 µM (inactive)
O=C(NC(c1ccccc1)c1nc(-c2ccccc2)no1)c1cccc(Cl)n1 (configuration not stated) | > 28.2 µM (inactive)
O=C(NC(c1ccc(Cl)c(Cl)c1)c1nc(-c2ccccc2)no1)c1ccc(Cl)cc1 (configuration not stated) | > 28.2 µM (inactive)
O=C(NC(c1ccc(Br)cc1)c1nc(-c2ccccc2)no1)c1ccc(Cl)c(Cl)c1 (configuration not stated) | > 28.2 µM (inactive)
O=C(NC(c1ccccc1)c1nc(-c2ccccc2)no1)c1cccc(Br)c1 (configuration not stated) | > 28.2 µM (inactive)
O=C(c1cccc(Cl)c1)N(CCO)C(c1ccc(Cl)c(Cl)c1)c1nc(-c2ccccc2)no1 (configuration not stated) | > 28.2 µM (inactive)
O=C(NC(c1ccc(Cl)c(Cl)c1)c1nc(-c2ccccc2)no1)c1cccc(Cl)c1 (configuration not stated) | > 28.2 µM (inactive)
Cc1ccc(C(NC(=O)c2cccc(Cl)c2)c2nc(-c3ccccc3)no2)cc1 (configuration not stated) | > 28.2 µM (inactive)
O=C(NC(Cc1ccccc1)c1nc(-c2ccccc2)no1)c1cccc(Cl)c1 (configuration not stated) | > 28.2 µM (inactive)
COc1ccc(C(=O)NC(c2ccccc2)c2nc(-c3ccccc3)no2)cc1 (configuration not stated) | > 28.2 µM (inactive)
O=C(NC(c1ccc(Cl)cc1)c1nc(-c2ccccc2)no1)c1ccc(Cl)c(Cl)c1 (configuration not stated) | > 28.2 µM (inactive)
O=C(NC(c1ccccc1)c1nc(-c2ccccc2)no1)c1ccc(Cl)cc1 (configuration not stated) | > 28.2 µM (inactive)
O=C(NC(c1nc(-c2ccccc2)no1)C1CCCCC1)c1ccc(Cl)c(Cl)c1 (configuration not stated) | > 28.2 µM (inactive)
N#Cc1ccc(C(=O)NC(c2ccc(Cl)c(Cl)c2)c2nc(-c3ccccc3)no2)cc1 (configuration not stated) | > 28.2 µM (inactive)
O=C(NC(c1ccc(Cl)c(Cl)c1)c1nc(-c2ccccc2)no1)c1ccccc1 (configuration not stated) | > 28.2 µM (inactive)
O=C(NC(c1ccc(Cl)cc1)c1nc(-c2ccccc2)no1)c1cccc(Br)c1 (configuration not stated) | > 28.2 µM (inactive)
O=C(NC(c1ccccc1)c1nc(-c2ccccc2)no1)c1cccc(Cl)c1 (configuration not stated) | > 28.2 µM (inactive)
O=C(NC(c1ccc(Cl)cc1)c1nc(-c2ccccc2)no1)c1cccc(Cl)c1 (configuration not stated) | > 28.2 µM (inactive)
O=C(NC(c1ccc(Cl)c(Cl)c1)c1nc(-c2ccccc2)no1)c1ccc(Cl)c(Cl)c1 (configuration not stated) | > 28.2 µM (inactive)
